{"source": "ChEMBL document CHEMBL3885861", "about": "“Open TG-GATES”", "species_on_record": "Rattus norvegicus", "experiment": "Open TG-GATES - Regimen: Daily Repeat", "assay_type": "toxicity, organism-based, Sprague-Dawley", "design": "regimen Daily Repeat, gender Male, age 6 weeks", "conditions": "in vivo, po, 1000 mg/kg, route gavage, dose level Middle; for Bas / Eos / Hb / Ht / Lym / MCH / MCHC / MCV / Mono / Neu / Plat / RBC / Ret / WBC: tissue Blood", "key": {"[1]": {"conditions": "72 h, tissue Kidney, time 3 day"}, "[2]": {"conditions": "72 h, tissue Plasma, time 3 day"}}, "data": [{"molecule": "CC(N)=O", "note": "[ACETAMIDE]", "values": [{"measurement": "TERMINAL_BW", "setting": "72 h, time 3 day", "result": 241.7, "unit": "g"}, {"measurement": "Bas", "setting": "72 h, time 3 day", "result": 0, "unit": "%"}, {"measurement": "Eos", "setting": "72 h, time 3 day", "result": 0.6, "unit": "%"}, {"measurement": "Hb", "setting": "72 h, time 3 day", "result": 12.4, "unit": "g/dL"}, {"measurement": "Ht", "setting": "72 h, time 3 day", "result": 38.2, "unit": "%"}, {"measurement": "Lym", "setting": "72 h, time 3 day", "result": 75.6, "unit": "%"}, {"measurement": "MCH", "setting": "72 h, time 3 day", "result": 20.1, "unit": "pg"}, {"measurement": "MCHC", "setting": "72 h, time 3 day", "result": 32.4, "unit": "%"}, {"measurement": "MCV", "setting": "72 h, time 3 day", "result": 62, "unit": "fL"}, {"measurement": "Mono", "setting": "72 h, time 3 day", "result": 3.8, "unit": "%"}, {"measurement": "Neu", "setting": "72 h, time 3 day", "result": 19, "unit": "%"}, {"measurement": "Plat", "setting": "72 h, time 3 day", "result": 119, "unit": "x10_4/uL"}, {"measurement": "RBC", "setting": "72 h, time 3 day", "result": 617.4, "unit": "x10_4/ul"}, {"measurement": "Ret", "setting": "72 h, time 3 day", "result": 7.8, "unit": "%"}, {"measurement": "WBC", "setting": "72 h, time 3 day", "result": 118.5, "unit": "x10_2/uL"}, {"measurement": "KIDNEY_L", "setting": "[1]", "result": 1, "unit": "g"}, {"measurement": "KIDNEY_R", "setting": "[1]", "result": 1, "unit": "g"}, {"measurement": "KIDNEY_TOTAL", "setting": "[1]", "result": 2, "unit": "g"}, {"measurement": "LIVER", "setting": "72 h, tissue Liver, time 3 day", "result": 11.3, "unit": "g"}, {"measurement": "A/G", "setting": "[2]", "result": 1}, {"measurement": "ALP", "setting": "[2]", "result": 1645.6, "unit": "IU/L"}, {"measurement": "ALT", "setting": "[2]", "result": 50.4, "unit": "IU/L"}, {"measurement": "AST", "setting": "[2]", "result": 84, "unit": "IU/L"}, {"measurement": "BUN", "setting": "[2]", "result": 17.2, "unit": "mg/dL"}, {"measurement": "CRE", "setting": "[2]", "result": 0.1, "unit": "mg/dL"}, {"measurement": "Ca", "setting": "[2]", "result": 10.9, "unit": "mg/dL"}, {"measurement": "Cl", "setting": "[2]", "result": 104.4, "unit": "meq/L"}, {"measurement": "DBIL", "setting": "[2]", "result": 0, "unit": "mg/dL"}, {"measurement": "GLC", "setting": "[2]", "result": 186, "unit": "mg/dL"}, {"measurement": "IP", "setting": "[2]", "result": 6.7, "unit": "mg/dL"}, {"measurement": "K", "setting": "[2]", "result": 4.4, "unit": "meq/L"}, {"measurement": "LDH", "setting": "[2]", "result": 228.8, "unit": "IU/L"}, {"measurement": "Na", "setting": "[2]", "result": 140.3, "unit": "meq/L"}, {"measurement": "PL", "setting": "[2]", "result": 161.8, "unit": "mg/dL"}, {"measurement": "RALB", "setting": "[2]", "result": 2.8, "unit": "g/dL"}, {"measurement": "TBIL", "setting": "[2]", "result": 0.004, "unit": "mg/dL"}, {"measurement": "TC", "setting": "[2]", "result": 82.2, "unit": "mg/dL"}, {"measurement": "TG", "setting": "[2]", "result": 130.3, "unit": "mg/dL"}, {"measurement": "TP", "setting": "[2]", "result": 5.6, "unit": "g/dL"}, {"measurement": "gamma-GTP", "setting": "[2]", "result": 0.9, "unit": "IU/L"}, {"measurement": "TERMINAL_BW", "setting": "[…], time 7 day", "result": 269.7, "unit": "g"}, {"measurement": "TERMINAL_BW", "setting": "[…], time 14 day", "result": 332.5, "unit": "g"}, {"measurement": "TERMINAL_BW", "setting": "[…], time 28 day", "result": 409, "unit": "g"}, {"measurement": "Bas", "setting": "[…], time 7 day", "result": 0, "unit": "%"}, {"measurement": "Eos", "setting": "[…], time 7 day", "result": 0.8, "unit": "%"}, {"measurement": "Hb", "setting": "[…], time 7 day", "result": 13, "unit": "g/dL"}, {"measurement": "Ht", "setting": "[…], time 7 day", "result": 39.6, "unit": "%"}, {"measurement": "Lym", "setting": "[…], time 7 day", "result": 79.2, "unit": "%"}, {"measurement": "MCH", "setting": "[…], time 7 day", "result": 20, "unit": "pg"}, {"measurement": "MCHC", "setting": "[…], time 7 day", "result": 32.8, "unit": "%"}, {"measurement": "MCV", "setting": "[…], time 7 day", "result": 60.8, "unit": "fL"}, {"measurement": "Mono", "setting": "[…], time 7 day", "result": 2.4, "unit": "%"}, {"measurement": "Neu", "setting": "[…], time 7 day", "result": 17.2, "unit": "%"}, {"measurement": "Plat", "setting": "[…], time 7 day", "result": 113.6, "unit": "x10_4/uL"}, {"measurement": "RBC", "setting": "[…], time 7 day", "result": 650.4, "unit": "x10_4/ul"}, {"measurement": "Ret", "setting": "[…], time 7 day", "result": 6.5, "unit": "%"}, {"measurement": "WBC", "setting": "[…], time 7 day", "result": 128.6, "unit": "x10_2/uL"}, {"measurement": "Bas", "setting": "[…], time 14 day", "result": 0, "unit": "%"}, {"measurement": "Eos", "setting": "[…], time 14 day", "result": 1, "unit": "%"}, {"measurement": "Hb", "setting": "[…], time 14 day", "result": 13.3, "unit": "g/dL"}, {"measurement": "Ht", "setting": "[…], time 14 day", "result": 39.8, "unit": "%"}, {"measurement": "Lym", "setting": "[…], time 14 day", "result": 81, "unit": "%"}, {"measurement": "MCH", "setting": "[…], time 14 day", "result": 19.7, "unit": "pg"}, {"measurement": "MCHC", "setting": "[…], time 14 day", "result": 33.4, "unit": "%"}, {"measurement": "MCV", "setting": "[…], time 14 day", "result": 59.2, "unit": "fL"}, {"measurement": "Mono", "setting": "[…], time 14 day", "result": 2.8, "unit": "%"}, {"measurement": "Neu", "setting": "[…], time 14 day", "result": 14.2, "unit": "%"}, {"measurement": "Plat", "setting": "[…], time 14 day", "result": 118.6, "unit": "x10_4/uL"}, {"measurement": "RBC", "setting": "[…], time 14 day", "result": 672.6, "unit": "x10_4/ul"}, {"measurement": "Ret", "setting": "[…], time 14 day", "result": 4.8, "unit": "%"}, {"measurement": "WBC", "setting": "[…], time 14 day", "result": 106.1, "unit": "x10_2/uL"}, {"measurement": "Bas", "setting": "[…], time 28 day", "result": 0, "unit": "%"}, {"measurement": "Eos", "setting": "[…], time 28 day", "result": 1, "unit": "%"}, {"measurement": "Hb", "setting": "[…], time 28 day", "result": 14.5, "unit": "g/dL"}, {"measurement": "Ht", "setting": "[…], time 28 day", "result": 43.1, "unit": "%"}, {"measurement": "Lym", "setting": "[…], time 28 day", "result": 81.6, "unit": "%"}, {"measurement": "MCH", "setting": "[…], time 28 day", "result": 18.9, "unit": "pg"}, {"measurement": "MCHC", "setting": "[…], time 28 day", "result": 33.7, "unit": "%"}, {"measurement": "MCV", "setting": "[…], time 28 day", "result": 56.2, "unit": "fL"}, {"measurement": "Mono", "setting": "[…], time 28 day", "result": 2.4, "unit": "%"}]}]}
